According to patent US6509369B2, “Anti-inflammatory compounds” (Ortho-McNeil Pharmaceutical, Inc., priority 1997, dated 2003):
pIC50: −log10 of the molar value.

Tests used:
[1] = target: T1, human glucocorticoid receptor (hGR) (Homo sapiens, UniProt P04150); assay: human glucocorticoid receptor binding assay (displacement of 3(H) Triamcinolone acetonide); settings: for hGR, value given as %: concentration not given
T1 construct: made in house; host or cells: Sf21 insect cells infected with baculovirus hGR, OR IM9 lymphoblast cell line (endogenous hGR)
T1 sequence (P04150 1-777): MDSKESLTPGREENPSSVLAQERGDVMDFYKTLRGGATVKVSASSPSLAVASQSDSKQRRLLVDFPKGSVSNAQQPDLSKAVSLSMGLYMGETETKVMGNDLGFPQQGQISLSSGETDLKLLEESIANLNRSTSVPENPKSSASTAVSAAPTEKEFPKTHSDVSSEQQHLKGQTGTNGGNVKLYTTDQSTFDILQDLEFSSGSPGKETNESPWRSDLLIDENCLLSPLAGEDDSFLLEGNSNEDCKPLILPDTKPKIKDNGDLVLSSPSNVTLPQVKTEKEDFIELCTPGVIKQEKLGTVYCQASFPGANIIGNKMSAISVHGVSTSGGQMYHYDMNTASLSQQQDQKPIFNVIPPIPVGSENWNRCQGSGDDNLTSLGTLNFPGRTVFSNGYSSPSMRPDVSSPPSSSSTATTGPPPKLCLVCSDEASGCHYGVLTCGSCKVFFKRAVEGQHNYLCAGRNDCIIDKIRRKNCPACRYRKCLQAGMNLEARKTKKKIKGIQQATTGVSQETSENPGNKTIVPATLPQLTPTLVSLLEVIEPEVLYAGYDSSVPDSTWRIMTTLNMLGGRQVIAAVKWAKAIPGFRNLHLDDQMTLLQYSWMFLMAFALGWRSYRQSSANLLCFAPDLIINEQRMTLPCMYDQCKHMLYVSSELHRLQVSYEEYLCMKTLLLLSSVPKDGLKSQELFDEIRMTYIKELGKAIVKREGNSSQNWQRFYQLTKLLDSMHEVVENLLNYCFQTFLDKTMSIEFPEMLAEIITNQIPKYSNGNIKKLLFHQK
Description: A human glucocorticoid receptor binding assay was carried out to determine the extent to which the compounds of this invention have the ability to bind to human glucocorticoid receptors. This binding ability may be indicative of the antiinflammatory activity of the compound. The test was carried out as follows.
Human glucocorticoid receptors were prepared from either insect cells (Sf21) infected with baculovirus hGR or from a lymphoblast cell line which expresses high levels of endogenous hGR (IM9). The receptor binding reactions, with or without test compounds, were set up in 96-well microtiter plates which were previously siliconized with SIGMACOTE™, a chlorinated organopolysiloxane in heptane. The binding components, 3(H) Triamcinolone acetonide (TAA), glycerol/molybdate-containing buffer and unlabeled compounds were added to the wells using a combination of BIOMEK laboratory automation system and repeat pipettes. After four hours of incubation, the samples were precipitated with polyethylene glycol and filtered through Whatman GF/F paper using a TOMTEK cell harvester. The filter mate with 96 samples were bound to a solid-phase scintillant and directly counted in a BETAPLATE counter. […] The activity of test compounds to displace 3(H) TAA binding to hGR is also expressed as percent inhibition at 1 μM.

[2] = test system: human progesterone receptor (hPR); assay: human progesterone receptor binding assay (displacement of 3(H) R5020 Promegestone)
Description: A human progesterone receptor binding assay was performed in order to determine selectivity of the compounds, as follows. Human progesterone receptors were prepared from either insect cells (SF21) infected with baculovirus hPR A, or from a breast cancer cell line, T47D, which expresses high levels of endogenous hPR. The receptor binding reactions, with or without test compounds, were set up in 96-well microtiter plates which were previously siliconized with SIGMACOTE. The binding components, 3(H) R5020 Promegestone, a high affinity ligand for the progesterone receptors, glycerol/molybdate-containing buffer and unlabeled compounds were added to the wells using a combination of BIOMEK laboratory automation system and repeat pipettes. After overnight incubation, the samples were precipitated with polyethylene glycol and filtered through Whatman GF/F paper using a TOMTEK cell harvester. The filter mate with 96 samples were bound to a solid-phase scintillant and directly counted in the BETAPLATE counter. Only those compounds that were active in the human glucocorticoid receptor assay set forth in Example 30 were used for progesterone receptor binding to determine cross-reactivity profiles, if any. The activity of test compounds to displace 3(H) R5020 binding to hPR is expressed as percent inhibition at the two concentrations, 10^−6 and 10^−5 Molar.

[3] = test system: oxazolone-induced ear swelling (MOCH) in albino male CD-1 mice; assay: mouse oxazolone-induced contact hypersensitization (MOCH) ear swelling; assay type: in vivo; settings: topical to mouse ear, 1 mg, one hour after oxazolone challenge, ear biopsy weight at 24 hours
Description: Several triphenylpropanamide compounds of this invention, having varying affinities for the human glucocorticoid receptor, were tested for topical antiinflammatory activity in mouse ear inflammation models. […] Compounds having receptor affinities closer to hydrocortisone were as nearly active as hydrocortisone in suppressing mouse oxazolone-induced contact hypersensitization (MOCH) and phorbol ester-induced ear edema. The in vivo studies of this example were conducted as follows.
In determining the MOCH using the compounds of this invention, albino male CD-1 mice, 7-9 weeks old were induced on the shaved abdomen with 50 μl of 3% oxazolone in acetone/corn oil (Day 0). On Day 5, a 20 μl volume of 2% oxazolone in acetone was applied to the dorsal left ear of the mouse . Compounds (made in ethanol/propylene glycol, 70:30) were applied to the left ear in 20 μl volume, one hour after oxazolone challenge. The right ear was not treated. The mice were sacrificed by carbon dioxide inhalation 24 hours after oxazolone challenge, the left and right ears were removed and a 7 mm biopsy was removed from each ear and weighed. The difference in biopsy weights between the right and left ears was calculated. Antiinflammatory effects of compounds were evident as an inhibition of the increase in ear weight.

Row | SMILES | pIC50 [1] | hPR % inh 10 μM [2] | hGR, value given as % [1] [%] | Oxazolone Ear Swelling (MOCH) % inhibition vs. Vehicle at 1 mg [3] [%]
1 | O=C(Cc1ccccc1Cl)NCC(c1ccccc1)C(c1ccccc1)c1ccccc1 (stereo not drawn) [Compound 2] | 6.87 | −23% | – | –
2 | O=C(Cc1ccc(Cl)cc1)NCC(c1ccccc1)C(c1ccccc1)c1ccccc1 (stereo not drawn) [Compound 3] | 6.32 | 4% | – | –
3 | Cc1ccc(CC(=O)NCC(c2ccccc2)C(c2ccccc2)c2ccccc2)cc1 (stereo not drawn) [Compound 4] | 6.28 | 12% | – | –
4 | COc1ccc(CC(=O)NCC(c2ccccc2)C(c2ccccc2)c2ccccc2)cc1OC (stereo not drawn) [Compound 7] | 6.04 | 11.6% | – | –
5 | O=C(Cc1c(Cl)cccc1Cl)NCC(c1ccccc1)C(c1ccccc1)c1ccccc1 (stereo not drawn) [Compound 8] | 6.47 | 3% | – | –
6 | O=C(Cc1ccccc1C(F)(F)F)NCC(c1ccccc1)C(c1ccccc1)c1ccccc1 (stereo not drawn) [Compound 10] | 6.11 | 15% | – | –
7 | O=C(Cc1cccc(C(F)(F)F)c1)NCC(c1ccccc1)C(c1ccccc1)c1ccccc1 (stereo not drawn) [Compound 11] | 6.08 | 20% | – | –
8 | O=C(Cc1ccc(C(F)(F)F)cc1)NCC(c1ccccc1)C(c1ccccc1)c1ccccc1 (stereo not drawn) [Compound 12] | 5.82 | 15% | – | –
9 | O=C(Cc1ccccc1)NCC(c1ccc(Cl)cc1)C(c1ccccc1)c1ccccc1 (stereo not drawn) [Compound 14] | 7.14 | 18% | – | –
10 | O=C(Cc1ccccc1)NCC(c1ccccc1)C(c1ccc(F)cc1)c1ccc(F)cc1 (stereo not drawn) [Compound 18, N-[3,3-bis-(4-fluorophenyl)-2-phenylpropyl]-2-phenylacetamide] | 6.21 | 14.1% | – | –
11 | O=C(CCc1ccccc1)NCC(c1ccccc1)C(c1ccccc1)c1ccccc1 (stereo not drawn) [Compound 19] | 6.85 | 24% | – | –
12 | COc1ccccc1CCC(=O)NCC(c1ccccc1)C(c1ccccc1)c1ccccc1 (stereo not drawn) [Compound 20] | 7.24 | 9% | – | –
13 | O=C(CCCc1ccccc1)NCC(c1ccccc1)C(c1ccccc1)c1ccccc1 (stereo not drawn) [Compound 24] | 6.17 | 10% | – | –
14 | O=C(Cc1cccs1)NCC(c1ccc(Cl)cc1)C(c1ccccc1)c1ccccc1 (stereo not drawn) [Compound 34] | 7.68 | 17% | – | –
15 | O=C(Cc1ccsc1)NCC(c1ccccc1)C(c1ccccc1)c1ccccc1 (stereo not drawn) [Compound 36] | 7.60 | 22% | – | –
16 | O=C(CCCc1cccs1)NCC(c1ccccc1)C(c1ccccc1)c1ccccc1 (stereo not drawn) [Compound 37] | 6.30 | 4% | – | –
17 | O=S(=O)(NCC(c1ccccc1)C(c1ccccc1)c1ccccc1)c1cccs1 (stereo not drawn) [Compound 40] | 6.82 | 22% | – | –
18 | O=C(NCC(c1ccccc1)C(c1ccccc1)c1ccccc1)c1ccsc1 (stereo not drawn) [Compound 42] | 7.17 | 18% | – | –
19 | O=C(NCC(c1ccccc1)C(c1ccccc1)c1ccccc1)c1cccs1 (stereo not drawn) [Compound 45] | 7.51 | 5% | – | –
20 | O=C(Cc1c[nH]c2ccccc12)NCC(c1ccccc1)C(c1ccccc1)c1ccccc1 (stereo not drawn) [Compound 47] | 6.38 | 17% | – | –

Row | SMILES | pIC50 [1] | hPR % inh 10 μM [2] | hGR, value given as % [1] [%] | Oxazolone Ear Swelling (MOCH) % inhibition vs. Vehicle at 1 mg [3] [%]
21 | O=C(CCc1c[nH]c2ccccc12)NCC(c1ccccc1)C(c1ccccc1)c1ccccc1 (stereo not drawn) [Compound 48] | 6.22 | 19% | – | –
22 | O=C(Cc1ccccn1)NCC(c1ccccc1)C(c1ccccc1)c1ccccc1 (stereo not drawn) [Compound 49] | 6.70 | 11% | – | –
23 | O=C(Cc1ccccc1)NCC(c1ccccc1)C1c2ccccc2-c2ccccc21 (stereo not drawn) [Compound 66] | 6.05 | 18% | – | –
24 | O=C(Cc1cccs1)NCC(c1ccccc1)C1c2ccccc2-c2ccccc21 (stereo not drawn) [Compound 71] | 6.09 | 16% | – | –
25 | O=C(Cc1ccccc1)NCC1(c2ccccc2)CC1(c1ccccc1)c1ccccc1 (stereo not drawn) [Compound 78] | 5.92 | 6% | – | –
26 | COc1ccc(CC(=O)NCC2(c3ccccc3)CC2(c2ccccc2)c2ccccc2)cc1OC (stereo not drawn) [Compound 79] | 6.00 | 24.5% | – | –
27 | O=C(Cc1ccccc1Cl)NCC1(c2ccccc2)CC1(c1ccccc1)c1ccccc1 (stereo not drawn) [Compound 80, N-(2chlorophenyl)acetyl-1,2,2-triphenylcyclopropylmethylamine] | 6.02 | −11% | – | –
28 | O=C(NCC1(c2ccccc2)CC1(c1ccccc1)c1ccccc1)C(c1ccccc1)c1ccccc1 (stereo not drawn) [Compound 82] | 6.29 | −20.4% | – | –
29 | CCCC(=O)NCC1(c2ccccc2)CC1(c1ccccc1)c1ccccc1 (stereo not drawn) [Compound 83] | 6.24 | 45% | – | –
30 | CC(C)C(=O)NCC1(c2ccccc2)CC1(c1ccccc1)c1ccccc1 (stereo not drawn) [Compound 84] | 6.21 | 15.3% | – | –
31 | CC(C)CC(=O)NCC1(c2ccccc2)CC1(c1ccccc1)c1ccccc1 (stereo not drawn) [Compound 85] | – | 7.2s % | 68 | 16
32 | CC(C)(C)C(=O)NCC1(c2ccccc2)CC1(c1ccccc1)c1ccccc1 (stereo not drawn) [Compound 86] | 6.18 | 12.6% | – | –
33 | CCCCC(=O)NCC1(c2ccccc2)CC1(c1ccccc1)c1ccccc1 (stereo not drawn) [Compound 87] | 6.17 | 19.8% | – | –
34 | O=C(Cc1ccsc1)NCC1(c2ccccc2)CC1(c1ccccc1)c1ccccc1 (stereo not drawn) [Compound 89] | 6.24 | 22% | – | –
35 | O=C(NCC1(c2ccccc2)CC1(c1ccccc1)c1ccccc1)Nc1ccccc1 (stereo not drawn) [Compound 92] | 5.83 | −1% | – | –
36 | O=C(NCC1(c2ccccc2)CC1(c1ccccc1)c1ccccc1)Nc1ccccc1F (stereo not drawn) [Compound 93] | – | 33.9% | 17 | 26
37 | COc1ccccc1NC(=O)NCC1(c2ccccc2)CC1(c1ccccc1)c1ccccc1 (stereo not drawn) [Compound 94] | – | −18.6% | 13 | 35
38 | O=C(NCc1ccccc1)NCC1(c2ccccc2)CC1(c1ccccc1)c1ccccc1 (stereo not drawn) [Compound 95] | – | −14.3% | 4 | 16
39 | O=C(NCC1(c2ccccc2)CC1(c1ccccc1)c1ccccc1)Oc1ccccc1 (stereo not drawn) [Compound 96] | 6.03 | 9.9% | – | –
40 | O=C(NCC1(c2ccccc2)CC1(c1ccccc1)c1ccccc1)Oc1ccc(Cl)cc1 (stereo not drawn) [Compound 97] | 6.80 | 12.5% | – | –
